# Experimental data as given in patent publication US9801850B2, “Antibacterial agent” (OSAKA UNIVERSITY, priority 2009, dated 2017).
# Tests used:
# MSSA ATCC25923 = experiment: Membrane damaging properties, SYTOX Green fluorescence (Example 4); type: cell-based, Staphylococcus aureus; conditions: for fluorescence intensity ratio of SYTOX Green (control PBS = 1): 37° C., 15 minutes, EGCG derivative 4-32, EGCG 8-128, NISIN 1-8 μg/ml, FIG. 3
# Protocol: As an antibacterial agent, the EGCG-C16 prepared in Example 1 was used in Example 4; EGCG was used in Comparative Example 4; and membrane-damaging peptide NISIN (MP Biomedicals) was used in a reference example. Antibacterial agent solutions of EGCG-C16 and EGCG were prepared by dissolving them in DMSO so as to achieve top concentrations, respectively. An antibacterial agent solution of the other antibacterial agent was prepared by dissolving it in PBS and diluted with PBS as appropriate. The influence of DMSO used for dissolving the antibacterial agents also was considered.
# MSSA ATCC25923 and MRSA ATCC43300 were subjected to shaking culture in MH-broths (Difco) until they reached a late stage in the exponential growth phase. The thus-obtained culture solutions were each centrifuged at 7000 rpm for 10 minutes, and bacterial cells that had settled were suspended in PBS. The suspension of the bacterial cells was added to wells of a 384 black plate, and each of the antibacterial agent solutions was further added thereto and mixed. The resultant mixture was incubated at 37° C. for 15 minutes. Subsequently, a dead cell-staining dye (trade name “SYTOX Green”, LONZA) was mixed in each well so that the concentration thereof became 10 μmol/l, and the resultant mixture was incubated at 37° C. for 10 minutes. […] On the other hand, as a control, the fluorescence intensity was measured in the same manner, except that PBS or 10% DMSO was added instead of the antibacterial agent solutions. Then, regarding each of the MSSA and MRSA, the ratio of the fluorescence intensity when each of the agents was added was calculated assuming that the fluorescence intensity obtained in the control (PBS) was 1.
# [1] = system: Escherichia coli MG1655 ΔacrB; experiment: MIC, influence of multidrug efflux pump (Example 5); type: cell-based
# Protocol: (§1) Using the EGCG derivatives, the minimum inhibitory concentration (MIC) was measured in the same manner as described in Section (2) of Example 2, except that Escherichia coli MG1655 (hereinafter referred to as a wild-type strain) and gene deletion strains of Escherichia coli MG1655 were used as the bacteria. The gene deletion strains were: strains obtained by deleting the efflux pump genes, namely, acrB, acrD, and acrEF, respectively, in Escherichia coli MG1655 (ΔacrD, ΔacrEF, and ΔacrB); and a strain obtained by deleting the outer membrane protein tolC gene that couples to proteins encoded by the efflux pump genes (ΔtolC).
# (§2) As Comparative Example 5, the minimum inhibitory concentration (MIC) was measured in the same manner as in Example 5, except that EGCG was used instead of the EGCG derivative.
# [2] = system: Escherichia coli MG1655 ΔacrD; experiment: as above; type: cell-based
# Protocol: as §1, §2
# [3] = system: Escherichia coli MG1655 ΔtolC; experiment: as above; type: cell-based
# Protocol: as §1, §2
# [4] = system: Escherichia coli MG1655 (wild type); experiment: as above; type: cell-based
# Protocol: as §1, §2
# [5] = system: Escherichia coli MG1655 ΔacrEF; experiment: as above; type: cell-based
# Protocol: as §1, §2
# [6] = system: methicillin-resistant Staphylococcus aureus (MRSA) ATCC43300; experiment: MIC, broth microdilution (Example 1); type: cell-based; conditions: for MIC: MRSA ATCC43300, MH-broth, 37° C., 18 hours
# Protocol: (§3) Methicillin-susceptible Staphylococcus aureus (MSSA) NCTC8325 and methicillin-resistant Staphylococcus aureus (MRSA) ATCC43300 were used as bacteria. The bacteria of each type were cultured using Mueller-Hinton Broth (MH-broth, Difco) as a medium. Then, the minimum inhibitory concentration (MIC) of each of the EGCG derivatives was measured by a broth microdilution method in accordance with the Clinical and Laboratory Standards Institute (CLSI) guidelines (hereinafter the same).
# (§4) First, each of the EGCG derivatives was dissolved in 100% dimethyl sulfoxide (DMSO, Wako Pure Chemical Industries, Ltd.) so that the concentration thereof became 5120 μg/ml. The resultant solution was diluted with DMSO or sterile distilled water so as to prepare two-fold dilution series of antibacterial agent solutions. […] Each of these antibacterial agent solutions was dispensed to wells of a 96-well plate. The concentration of the EGCG derivative in the antibacterial agent solution dispensed to the wells was set to be 10 times as high as the final concentration. On the other hand, the bacteria were cultured in the MH-broth at 37° C. overnight, and the thus-obtained pre-culture solution was diluted with a new MH-broth so that the concentration thereof in the MH-broth became 10^−4 (10^4-fold dilution), thus preparing a bacterial culture solution of about 1×10^5 CFU/ml (CFU: Colony Forming Unit, the number of viable cells). The bacterial culture solution was further added to each well, and the mixture was cultured at 37° C. for 18 hours. The ratio (volume ratio) between the antibacterial agent solution and the bacterial culture solution added to each well was set to 1:9 (the antibacterial agent solution:the bacterial culture solution), and the volume of the mixture of them per well was set to 100 μl in total. The final concentration of the EGCG derivative in the mixture was set to 8 μg/ml to 512 μg/ml, and the number of viable cells in the mixture was set to about 1×10^5 CFU/ml. Then, after the completion of the culture, the MIC was determined. Also, the turbidity (OD600 nm) was measured using a plate reader so as to identify minor differences.
# (§5) As Comparative Example 1, the same procedures as in Example 1 were performed, except that unsubstituted EGCG was used as an antibacterial agent instead of the EGCG derivatives of Example 1. Furthermore, as a control, the same procedures as in Example 1 were performed, except that sterile distilled water, 100% DMSO, or 50% DMSO was used instead of the antibacterial agent solutions containing the EGCG derivatives.
# [7] = system: Methicillin-susceptible Staphylococcus aureus (MSSA) NCTC8325; experiment: MIC, broth microdilution (Example 1); type: cell-based; conditions: MH-broth, 37° C., 18 hours
# Protocol: as §3, §4, §5
Compound,fluorescence intensity ratio of SYTOX Green (control PBS = 1) (MSSA ATCC25923),MIC [1] [µg/mL],MIC [2] [µg/mL],MIC [3] [µg/mL],MIC [4] [µg/mL],MIC [5] [µg/mL],MIC [6] [µg/mL],MIC [7] [µg/mL],cell membrane-damaging action at high concentration (SYTOX Green) (MSSA ATCC25923; EGCG-C16 at 64 μg/ml),"inhibition of propagation (MIC, turbidity OD600 nm) ([6]; MRSA, FIG. 1 and Table 3)"
"O=C(O[C@@H]1Cc2c(O)cc(O)cc2O[C@@H]1c1cc(O)c(O)c(O)c1)c1cc(O)c(O)c(O)c1 [EGCG, Epigallocatechin gallate, reference compound]",smaller than 1,128,>256,128,>256,>256,256,128,,
EGCG-dioctanoate [EGCG-C8×2],,64,>128,32,>128,>128,,,,
EGCG-palmitate [EGCG-C16],very high fluorescence intensity ratio,64,>128,64,>128,>128,8,8,tendency for this action of EGCG-C16 to become weak,remarkable propagation-inhibiting effect
EGCG-palmitoleate [EGCG-C16E],,64,>128,64,>128,>128,,,,
EGCG-stearate [EGCG-C18],,,,,,,32,16,,
EGCG-α-linoleate [EGCG-C18TE],,64,>128,64,>128,>128,,,,
